Laboratory results published in patent US20220251084A1, “PROGRANULIN MODULATORS AND METHODS OF USING THE SAME” (ARKUDA THERAPEUTICS, priority 2019, published 2022).
Counter-ions that a name gives are not always drawn.

The compounds below were run on progranulin (PGRN) secretion, BV-2 cells (assay: PGRN assay: progranulin induction cellular assay (ELISA of secreted mouse PGRN)). Conditions: not given.
Format: cell-based
Method in brief: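 Progranulin induction measured in BV-2 cells plated at about 80% confluence the day before, given 1 h to attach, then incubated 16 h. Secreted mouse PGRN quantified by ELISA.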

| SMILES | EC50 [µM] |
| --- | --- |
| N#Cc1ccc2c(c1)[C@@H](c1ccc(F)cc1)N(C(=O)O[C@@H]1CN3CCC1CC3)CC2 [Compound 2036] | > 10 |
| CN1CCC([C@H]2c3ccccc3CCN2C(=O)O[C@@H]2CN3CCC2CC3)CC1=O (stereo partly drawn) [Compound 2024, (S)-quinuclidin-3-yl 1-(1-methyl-2-oxopiperidin-4-yl)-3,4-dihydroisoquinoline-2(1H)-carboxylate] | > 10 |
| O=C(O[C@@H]1CN2CCC1CC2)N1CCn2nnnc2C1c1ccc(F)cc1 (stereo partly shown) [Compound 2124] | 5.34 |

Same assay, conditions: Mus musculus, BV-2

| SMILES | EC50 [µM] |
| --- | --- |
| CNC(=O)c1ccc2c(c1)CCN(C(=O)O[C@@H]1CN3CCC1CC3)[C@H]2c1ccc(F)cc1 [Compound 2100] | > 10 |
| CS(=O)(=O)c1ccc2c(c1)[C@@H](c1ccc(F)cc1)N(C(=O)O[C@@H]1CN3CCC1CC3)CC2 [Compound 2032] | > 10 |
| CNC(=O)c1ccc2c(c1)[C@@H](c1ccc(F)cc1)N(C(=O)O[C@@H]1CN3CCC1CC3)CC2 [Compound 2066] | > 10 |
| COC(=O)c1ccc2c(c1)[C@H](c1ccc(F)cc1)N(C(=O)O[C@@H]1CN3CCC1CC3)CC2 [Compound 2029] | > 10 |

Same assay, conditions: Mus musculus, BV-2, PGRN assay, Table C; secreted mouse PGRN in cell culture medium, ELISA

| SMILES | EC50 [µM] |
| --- | --- |
| O=C(OCC12CCN(CC1)CC2)N1CCc2ccccc2[C@@H]1c1cc(F)c(F)c(F)c1 [Compound 2147] | 4.74 |
| CN1CC2(CC(OC(=O)N3CCc4ccccc4[C@@H]3c3ccc(F)cc3)C2)C1 [Compound 2019] | 0.965 |
| O=C(NCC12CCN(CC1)CC2)N1CCc2ccccc2[C@@H]1c1ccc(F)cc1 [Compound 2178] | 0.59 |
| CN(CC12CCN(CC1)CC2)C(=O)N1CCc2ccccc2[C@@H]1c1ccc(F)cc1 [Compound 2013] | > 10 |
| CNC(=O)c1ccc2c(c1)CCN(C(=O)N[C@@H]1CN3CCC1CC3)[C@@H]2c1ccc(F)cc1 [Compound 2091] | > 10 |
| O=C(O[C@@H]1[C@@H]2CC[C@H]1CNC2)N1CCc2ccccc2[C@@H]1c1ccc(F)cc1 (single isomer, unassigned) [Compound 2103] | 4.28 |
| O=C(N[C@@H]1CCN2CCC[C@H]12)N1CCc2ccccc2[C@@H]1c1ccc(F)cc1 [Compound 2048] | 1.9 |
| CN1CCC(CCOC(=O)N2CCc3ccccc3[C@@H]2c2ccc(F)cc2)CC1 [Compound 2163] | > 10 |
| COc1ccc(COc2ccc([C@H]3c4ccccc4CCN3C(=O)OCC34CCN(CC3)CC4)cc2)cc1 [Compound 2136] | > 3.16 |
| O=C(O[C@H]1[C@@H]2CC[C@H]1CNC2)N1CCc2ccccc2[C@@H]1c1ccc(F)cc1 (single isomer, unassigned) [Compound 2102] | 0.278 |
| CN1CCC2(CCCN2C(=O)N2CCc3ccccc3[C@@H]2c2ccc(F)cc2)CC1 [Compound 2120, (S)-(1-(4-fluorophenyl)-3,4-dihydroisoquinolin-2(1H)-yl)(8-methyl-1,8-diazaspiro[4.5]decan-1-yl)methanone] | 2.68 |
| C#CCOc1ccc2c(c1)CCN(C(=O)OCC13CCN(CC1)CC3)[C@@H]2c1ccc(F)cc1 [Compound 2079] | 4.83 |
| CN1CCC(COC(=O)N2CCc3ccccc3[C@H]2c2cc(F)cc(F)c2)CC1 [Compound 2109] | > 10 |
| O=C(OCC1CCN(CC(F)(F)F)CC1)N1CCc2ccccc2[C@@H]1c1ccc(F)cc1 [Compound 2107] | > 10 |
| CNC(=O)c1ccc2c(c1)[C@H](c1ccc(F)cc1)N(C(=O)OCC13CCN(CC1)CC3)CC2 [Compound 2059] | > 10 |
| N#Cc1ccc2c(c1)CCN(C(=O)N[C@@H]1CN3CCC1CC3)[C@@H]2c1ccc(F)cc1 [Compound 2015] | 1.5 |
| CN(CC1CCNCC1)C(=O)N1CCc2ccccc2[C@@H]1c1ccc(F)cc1 [Compound 2182, 1-(4-fluorophenyl)-N-methyl-N-(piperidin-4-ylmethyl)-3,4-dihydroisoquinoline-2(1H)-carboxamide] | > 10 |
| N#Cc1ccc2c(c1)CCN(C(=O)N[C@@H]1CN3CCC1CC3)[C@H]2c1ccc(F)cc1 [Compound 2014] | 2.32 |
| CN1C[C@H]2CC[C@@H](OC(=O)N3CCc4ccccc4[C@@H]3c3ccc(F)cc3)[C@H]2C1 (relative stereo) [Compound 2061, (1 S)-(rel-(3′aR,6′aS)-2′-methyloctahydrocyclopenta[c]pyrrol-4-yl)-1-(4-fluorophenyl)-3,4-dihydroisoquinoline-2(1H)-carboxylate] | 0.321 |
| CN1CC2(CC[C@@H]2OC(=O)N2CCc3ccccc3[C@@H]2c2ccc(F)cc2)C1 [Compound 2021] | 0.735 |
| CN1CCC(COC(=O)N2CCc3ccccc3[C@H]2c2ccc(F)c(F)c2)CC1 (single isomer, unassigned) [Compound 2139, (1-methylpiperidin-4-yl)methyl-1-(3,4-difluorophenyl)-3,4-dihydroisoquinoline-2(1H)-carboxylate] | > 10 |
| CN(CC1CCNCC1)C(=O)N1CCc2ccccc2[C@H]1c1ccc(F)cc1 [Compound 2183, 1-(4-fluorophenyl)-N-methyl-N-(piperidin-4-ylmethyl)-3,4-dihydroisoquinoline-2(1H)-carboxamide] | 9.6 |
| COC(=O)c1ccc2c(c1)CCN(C(=O)NCC13CCN(CC1)CC3)[C@H]2c1ccc(F)cc1 [Compound 2068] | 3.37 |

Same assay, conditions: Mus musculus, BV-2, PGRN assay, Table D; secreted mouse PGRN in cell culture medium, ELISA

| SMILES | EC50 [µM] |
| --- | --- |
| CN(C)C1CCN(C(=O)N2CCc3ccccc3[C@@H]2c2ccc(F)cc2)C1 (stereo in doubt) [Compound 2311, ((R)-3-(dimethylamino)pyrrolidin-1-yl)((S)-1-(4-fluorophenyl)-3,4-dihydroisoquinolin-2(1H)-yl)methanone] | 1.32 |
| CC1(C)CNC[C@H]1NC(=O)N1CCc2ccccc2[C@@H]1c1ccc(F)cc1 [Compound 2273] | 0.319 |
| CC1(C)CNC[C@H]1OC(=O)N1CCc2ccccc2[C@@H]1c1ccc(F)cc1 [Compound 2292] | 0.431 |
| CN(C(=O)N1CCc2ccccc2[C@@H]1c1ccc(F)cc1)[C@@H]1CNCC1(F)F [Compound 2296, (S)—N—((R)-4,4-difluoropyrrolidin-3-yl)-1-(4-fluorophenyl)-N-methyl-3,4-dihydroisoquinoline-2(1H)-carboxamide] | 4.02 |
| O=C(N[C@H]1CCNC1)N1CCc2ccccc2[C@@H]1c1ccc(F)cc1 [Compound 2222] | 0.94 |
| CN1CC[C@@H](O)[C@H](O)[C@H]1COC(=O)N1CCc2ccccc2[C@@H]1c1ccc(F)cc1 [Compound 2289, ((2R,3R,4R)-3,4-dihydroxy-1-methylpiperidin-2-yl)methyl (S)-1-(4-fluorophenyl)-3,4-dihydroisoquinoline-2(1H)-carboxylate] | > 10 |
| CNC[C@@H]1CN(C(=O)N2CCc3ccccc3[C@@H]2c2ccc(F)cc2)CCO1 [Compound 2306] | 0.129 |
| O=C(N[C@@H]1CNCC1(F)F)N1CCc2ccccc2[C@@H]1c1ccc(F)cc1 (stereo in doubt) [Compound 2244, (1 S)—N-(4,4-difluoropyrrolidin-3-yl)-1-(4-fluorophenyl)-3,4-dihydroisoquinoline-2(1H)-carboxamide] | 3.26 |
| CN1CC[C@H](N(C)C(=O)N2CCc3ccccc3[C@@H]2c2ccc(F)cc2)C1 [Compound 2270, (S)-1-(4-fluorophenyl)-N-methyl-N—((S)-1-methylpyrrolidin-3-yl)-3,4-dihydroisoquinoline-2(1H)-carboxamide] | 0.515 |
| CN1C[C@@H](NC(=O)N2CCc3ccccc3[C@@H]2c2ccc(F)cc2)C2(CC2)C1 (single isomer, unassigned) [Compound 2317] | 9.74 |
| CN1C[C@H](NC(=O)N2CCc3ccccc3[C@H]2c2ccc(F)cc2)C2(CC2)C1 [Compound 2316] | 0.453 |
| CN1CC(CNC(=O)N2CCc3ccccc3[C@@H]2c2ccc(F)cc2)C1 [Compound 2282] | > 10 |
| CN1CCC(C(=O)C(=O)N2CCc3ccccc3[C@@H]2c2ccc(F)cc2)C1 (stereo partly drawn) [Compound 2274, 1-((S)-1-(4-fluorophenyl)-3,4-dihydroisoquinolin-2(1H)-yl)-2-(1-methylpyrrolidin-3-yl)ethane-1,2-dione] | 1.4 |
| O=C(NCC1(F)CNC1)N1CCc2ccccc2[C@@H]1c1ccc(F)cc1 [Compound 2231] | 1.04 |
| CN(C(=O)N1CCc2ccccc2[C@@H]1c1ccc(F)cc1)[C@H]1CCCNC1 (single isomer, unassigned) [Compound 2211] | 3.03 |
| O=C(OC[C@]1(F)CCNC1)N1CCc2ccccc2[C@@H]1c1ccc(F)cc1 [Compound 2256] | 0.17 |
| CN1CCCN(C(=O)N2CCc3ccccc3[C@@H]2c2ccc(F)cc2)CC1 [Compound 2269, (S)-(1-(4-fluorophenyl)-3,4-dihydroisoquinolin-2(1H)-yl)(4-methyl-1,4-diazepan-1-yl)methanone] | 0.656 |
| NC[C@@H]1CCN(C(=O)N2CCc3ccccc3[C@@H]2c2ccc(F)cc2)C1 [Compound 2279, ((S)-3-(aminomethyl)pyrrolidin-1-yl)((S)-1-(4-fluorophenyl)-3,4-dihydroisoquinolin-2(1H)-yl)methanone] | 0.428 |
| CN1CCN(C(=O)N2CCc3ccccc3[C@@H]2c2ccc(F)cc2)CC(F)(F)C1 [Compound 2261, (S)-(6,6-difluoro-4-methyl-1,4-diazepan-1-yl)(1-(4-fluorophenyl)-3,4-dihydroisoquinolin-2(1H)-yl)methanone hydrochloride] | > 10 |
| CN1CCC(C2(OC(=O)N3CCc4ccccc4[C@@H]3c3ccc(F)cc3)CC2)CC1 [Compound 2215] | 2.7 |
| CN1[C@H]2CC[C@@H]1[C@H](NC(=O)N1CCc3ccccc3[C@@H]1c1ccc(F)cc1)C2 (single isomer, unassigned) [Compound 2225] | 1.01 |

Same assay, conditions: PGRN assay, Table C; secreted mouse PGRN in cell culture medium, ELISA

| SMILES | EC50 [µM] |
| --- | --- |
| O=C(OC1[C@@H]2CC3C[C@@H]1CN(C3)C2)N1CCc2ccccc2[C@@H]1c1ccc(F)cc1 (stereo partly shown) [Compound 2098] | 0.339 |
| CN1CCC(COC(=O)N2CCc3ccccc3[C@@H]2c2ccc(F)cc2)CC1 [Compound 2095] | 3.17 |
| O=C(OC1CNC1)N1CCc2ccccc2[C@@H]1c1ccc(F)cc1 [Compound 2177] | > 3.16 |
| O=C(OC1CCNCC1)N1CCc2ccccc2[C@@H]1c1ccc(F)cc1 [Compound 2176] | 0.29 |
